Consider six molecules from patent US11155542B2, “Antimicrobial compounds, their use for the treatment of mammalian infections and a new metabolic mechanism” (priority 2016, dated 2021).

Data set [1] is described as follows: Minipig plasma samples after oral BTZ043. The data set is classed as in vivo, minipigs. The settings on record: plasma samples after incubation at room temperature, in some samples. The procedure: In order to reveal potentially overlooked metabolites, additional metabolic studies of BTZ043 were performed that incorporated careful analysis of highly resolved HPLC chromatograms of plasma samples after different incubation times at room temperature. To ensure maximum stability of the chromatographic conditions, all solvents were carefully degassed through vacuum treatment and/or sparging with nitrogen. […] The concomitant drastic increase of the BTZ043 peak area (in some samples >100%) emphasized the significance of this transient metabolite. […] It was suspected that this metabolite could be formed through an enzymatic reduction of BTZ043 and that it is unstable towards oxygen from air.
Minipig plasma samples: Minipigs received oral doses of 360 mg/kg BTZ043. Blood was collected 2 h subsequent to administration of the compound formulation, immediately cooled on ice and centrifuged at 4° C. and 3000 rpm to yield plasma aliquots which were snap frozen and stored at −80° C. Plasma aliquots (50 μL) were mixed with acetonitrile (200 μL) on ice and under inert conditions (Don Whitley Scientific, anaerobic workstation), vortexed, treated in an ultrasonic bath (3-5 s) and centrifuged at 4° C. and 9750 rpm. The supernatants were concentrated with a nitrogen stream to a residual volume of approximately 40 μL and analyzed by HPLC and LC-HRMS.

Data set [2] has as its system Mtb H37Rv. The data set can be described thus: Resazurin microtiter assay (REMA), MIC Mtb H37Rv. The data set is classed as cell-based. The following applies: Mycobacterium tuberculosis. (In general: Resazurin is reduced to fluorescent resorufin, in cell work by metabolically active cells.)
A short description of data set [3]: Blank plasma from untreated animals spiked with BTZ043. In kind it is in vitro ADME. From the text:
It was therefore reasoned, that a possible explanation of this phenomenon would involve a yet unknown metabolite that was either thermally or oxidatively unstable when exposed to air.

The test system of data set [4] is M. marinum. The data set can be described thus: MIC M. marinum. The data set is classed as cell-based. The following applies: Mycobacterium marinum.
Data set [5] in a line: Cytotoxicity determination (HeLa). The settings on record: human, HeLa cells (DSM ACC 57). In kind it is cell-based. The procedure: The test items were dissolved in DMSO (typically 10 mg/mL, less soluble compounds lower). The solutions were diluted in RPMI 1640 medium. HeLa cells (DSM ACC 57) were grown in RPMI 1640 and harvested at the logarithmic growth phase after soft trypsinization using 0.25% trypsin in phosphate buffered saline (PBS) containing 0.02% ethylenediaminetetraacetic acid (EDTA). For each experiment, approximately 10,000 cells were seeded with 0.1 mL culture medium per well of the 96-well microplates. HeLa cells were pre-incubated for 48 h prior to the addition of the test compounds (final DMSO concentration ≤0.5%), which were carefully diluted on the subconfluent monolayers. Incubation was then conducted in a humidified atmosphere at 37° C. and 5% CO2. The adherent HeLa cells were fixed by glutaraldehyde and stained with a 0.05% solution of methylene blue for 10 min. After gently washing, the stain was eluted with 0.2 mL of 0.33 N HCl in the wells. The optical densities were measured at 660 nm in a SUNRISE microplate reader (TECAN).

The format of data set [6] is in vitro ADME. The following applies: 5 µg/mL. The method, then:
Human – A BTZ043 solution in DMSO (5 mg/mL) was prepared and 1 μL of this solution was added to 1 mL aliquots fresh whole blood. The mixtures were shaken at 37° C. for 2 h or 16 h and centrifuged at 4° C. and 3000 rpm to yield plasma. Plasma samples (60 μL) were mixed with acetonitrile (240 μL) on ice, vortexed, treated in an ultrasonic bath (3-5 s) and centrifuged at 4° C. and 9750 rpm. The supernatants were concentrated with a nitrogen stream to a residual volume of approximately 40 μL and analyzed by HPLC and LC-HRMS.

Data set [7] has as its system M. vaccae 10670. The data set can be described thus: MIC M. vaccae 10670. The data set is classed as cell-based. The settings on record: Mycolicibacterium vaccae.
A short description of data set [8]: Chemical stability and solubility of Meisenheimer complexes and methylated derivatives. The settings on record: room temperature.
Data set [9] is described as follows: Fresh blood assay, mice. The settings on record: in vitro incubation of fresh whole blood, HPLC-HRMS. The data set is classed as in vitro ADME, C57BL/6J mice. The procedure: Mice: Fresh whole blood was collected from C57BL/6J mice after cervical dislocation under isoflurane anesthesia. Test item solutions were prepared in DMSO (5 mg/mL) and 0.4 μL of this solution was added to 400 μL fresh whole blood. The mixtures were incubated at 37° C. for 4 h and centrifuged at 4° C. and 3000 rpm to yield plasma. Plasma samples (50 μL) were mixed with acetonitrile (200 μL) on ice, vortexed, treated in an ultrasonic bath (3-5 s) and centrifuged at 4° C. and 9750 rpm. The supernatants were concentrated with a nitrogen stream to a residual volume of approximately 40 μL and analyzed by HPLC and LC-HRMS.

SMILES strings stand for the structures. ≈ marks a conversion by molar mass, not a printed value.

What is called MIC is the lowest concentration found to suppress growth. A high value points to weaker potency. For orientation: CC50 means the concentration that lowers cell viability or growth by half. A low value points to greater toxicity to the cells. For `C[C@H]1COC2(CCN(c3nc(=O)c4cc(C(F)(F)F)cc([N+](=O)[O-])c4s3)CC2)O1` [BTZ043, (S)-2-(2-methyl-1,4-dioxa-8-azaspiro[4.5]decan-8-yl)-8-nitro-6-(trifluoro-methyl)-4H-1,3-benzothiazin-4-one, reference compound], the “Increase of the BTZ043 peak area in plasma samples over time” value in [1] was greater than 100%. The results for the MIC in [2], in data set [4] and in [7] were 1 ng/mL (≈ 0.00232 µM), 4 ng/mL (≈ 0.00927 µM) and less than 1.2 ng/mL, respectively. The “Peak areas of BTZ043 in spiked blank plasma over time” value in data set [3] is given as “remained completely unchanged over time”. In [5], this molecule displayed a CC50 greater than 50000 ng/mL. In addition, the “Transformation of BTZ043 to 5b in fresh whole human blood” value in data set [6] is “transformation of BTZ043 to 5b after several hours”.

Take `COC1=C2C=C(C(F)(F)F)CC([N+](=O)[O-])=C2SC(N2CCC3(CC2)OC[C@H](C)O3)=N1` [Compound 6a]: the “Solubility and stability of the methylated derivatives” value in data set [8] is “sufficiently soluble and stable at room temperature”.

In the case of `COC1=C2CC(C(F)(F)F)=CC([N+](=O)[O-])=C2SC(N2CCC3(CC2)OC[C@H](C)O3)=N1` [Compound 6b], the “Solubility and stability of the methylated derivatives” value in data set [8] is “sufficiently soluble and stable at room temperature”.

`Cc1c(C(F)(F)F)cc2c(=O)nc(N3CCC4(CC3)OC[C@H](C)O4)sc2c1[N+](=O)[O-]` [Example 9a, (S)-7-Methyl-2-(2-methyl-1,4-dioxa-8-azaspiro[4.5]decan-8-yl)-8-nitro-6-(trifluoromethyl)-4H-1,3-benzothiazin-4-one]: the MIC in data set [2] stood at 500 ng/mL (≈ 1.12 µM); in data set [4], 250 ng/mL (≈ 0.561 µM); in [7] it was 39 ng/mL (≈ 0.0876 µM). In addition, the “Formation of the Meisenheimer complex (reduced form) in the blood assay” value in data set [9] is given as “formed only fairly detectable amounts of the Meisenheimer complex”. This molecule also yielded a CC50 in [5] of 38900 ng/mL (≈ 87.3 µM).

Take `Cc1c(C(F)(F)F)cc([N+](=O)[O-])c2sc(N3CCC4(CC3)OC[C@H](C)O4)nc(=O)c12` [Example 9b, (S)-5-Methyl-2-(2-methyl-1,4-dioxa-8-azaspiro[4.5]decan-8-yl)-8-nitro-6-(trifluoromethyl)-4H-1,3-benzothiazin-4-one]: the MIC in data set [2] is 8 ng/mL (≈ 0.018 µM); in data set [4] it was 8 ng/mL (≈ 0.018 µM); in [7] it was less than 1.2 ng/mL. Besides, the “Formation of the Meisenheimer complex (reduced form) in the blood assay” value in data set [9] is listed as “could only be detected in trace amounts”. In [5], this molecule came in with a CC50 greater than 50000 ng/mL.

`Cc1c(C(F)(F)F)cc([N+](=O)[O-])c2sc(N3CCN(CC4CCCCC4)CC3)nc(=O)c12` [Example 16, 2-(4-(Cyclohexylmethyl)piperazin-1-yl)-5-methyl-8-nitro-6-(trifluoromethyl)-4H-1,3-benzothiazin-4-one]: the MIC in data set [2] is 0.5 ng/mL (≈ 0.00106 µM); in data set [4], 1 ng/mL (≈ 0.00213 µM); in data set [7] it was less than 1.2 ng/mL. Moreover, the CC50 in data set [5] is greater than 25000 ng/mL.
